Assay results: US20160101148A1, “TREATMENT AND PREVENTION OF BACTERIAL SKIN INFECTIONS USING ORITAVANCIN” (priority 2013, published 2016)
Converted amounts (≈) assume the structure as drawn. Marks after values point to notes of the source that are not given here.

Key:
[1] = tested on: ABSSSI caused by susceptible gram-positive bacteria, including MRSA; assay: SOLO II Phase 3 trial, efficacy; format: in vivo, human
Text: (§1) Complete results were obtained from a phase 3 clinical trial program of oritavancin (SOLO), which investigated the drug for the treatment of acute bacterial skin and skin structure infections (ABSSSI) caused by susceptible gram-positive bacteria, including methicillin-resistant Staphylococcus aureus (MRSA). SOLO I and SOLO II clinical trials were identical multicenter, double-blind, randomized clinical trials.
In SOLO II, all protocol-specified primary and secondary efficacy endpoints were met. […] The efficacy was similar in the overall population and in those patients with microbiologically confirmed MRSA infections.

[2] = SOLO II Phase 3 trial, safety; format: in vivo, human; conditions: for Patients reported to experience at least one adverse event: up to 60 days after treatment
Text: Safety profiles, measured at any point up to 60 days after treatment, were similar across treatment groups in SOLO II.

[3] = tested on: ABSSSI caused by susceptible gram-positive bacteria, including MRSA; assay: SOLO I and SOLO II combined, efficacy; format: in vivo, human; conditions: for FDA primary endpoint: Cessation of spread, absence of fever, no rescue antibiotics / ≧20% reduction of lesion area / FDA primary endpoint: Cessation of spread, absence of fever, no rescue antibiotics, number of patients / ≧20% reduction of lesion area, number of patients / % Difference (95% CI), FDA primary endpoint / % Difference (95% CI), ≧20% reduction of lesion area / EMA primary endpoint: Investigator-assessed clinical cure / EMA primary endpoint: Investigator-assessed clinical cure, number of patients / % Difference (95% CI), investigator-assessed clinical cure: SOLO I and SOLO II combined; for FDA primary endpoint: Cessation of spread, absence of fever, no rescue antibiotics / ≧20% reduction of lesion area / FDA primary endpoint: Cessation of spread, absence of fever, no rescue antibiotics, number of patients / ≧20% reduction of lesion area, number of patients / % Difference (95% CI), FDA primary endpoint / % Difference (95% CI), ≧20% reduction of lesion area: ECE; for % Difference (95% CI), FDA primary endpoint / % Difference (95% CI), ≧20% reduction of lesion area / % Difference (95% CI), investigator-assessed clinical cure: oritavancin vs vancomycin; for EMA primary endpoint: Investigator-assessed clinical cure / EMA primary endpoint: Investigator-assessed clinical cure, number of patients / % Difference (95% CI), investigator-assessed clinical cure: PTE
Text: as §1
In microbiologically confirmed MRSA patients, efficacy was similar in both treatment groups; however, a higher proportion of MRSA-infected patients in the oritavancin group achieved the endpoint of greater than or equal to 20% reduction of lesion area at ECE (p value=0.032). Under the Special Protocol Assessment (SPA) agreed with the FDA, the protocols pre-specified that MRSA patients from the SOLO studies would be pooled for the evaluation of efficacy.
The combined SOLO studies represented 1,987 patients in an intent-to-treat population for evaluation of oritavancin in the treatment of ABSSSI in controlled clinical trials and assessed one of the largest subsets of patients with documented MRSA infection (405 patients).

MRSA isolates = MRSA isolates in a surveillance study (Arhin et al., 2009); cited from earlier work
[4] = cited from earlier work; for Free Fraction: protein binding values from Arhin et al., 2010 (oritavancin) and package inserts (comparators)
[5] = confirmed MRSA, Microbiological ITT, ECE
[6] = confirmed MRSA, Microbiological ITT, ECE, oritavancin n = 100, vancomycin n = 101
[7] = confirmed MRSA, Microbiological ITT, PTE
[8] = confirmed MRSA, Microbiological ITT, PTE, oritavancin n = 100, vancomycin n = 101
[9] = mITT, ECE, oritavancin n = 503, vancomycin n = 502
[10] = mITT, ECE, oritavancin vs vancomycin
[11] = mITT, PTE, oritavancin n = 503, vancomycin n = 502
[12] = confirmed MRSA, MicroITT, oritavancin n = 204, vancomycin n = 201
[13] = mITT, oritavancin n = 978, vancomycin n = 981

SMILES | FDA primary endpoint: Cessation of spread, absence of fever, no rescue antibiotics [1, 5] [%] | ≧20% reduction of lesion area [1, 5] [%] | FDA primary endpoint: Cessation of spread, absence of fever, no rescue antibiotics, number of patients [1, 6] | ≧20% reduction of lesion area, number of patients [1, 6] | EMA primary endpoint: Investigator-assessed clinical cure [1, 7] [%] | EMA primary endpoint: Investigator-assessed clinical cure, number of patients [1, 8] | FDA primary endpoint: Cessation of spread, absence of fever, no rescue antibiotics ([1]; mITT, ECE) [%] | ≧20% reduction of lesion area ([1]; mITT, ECE) [%] | FDA primary endpoint: Cessation of spread, absence of fever, no rescue antibiotics, number of patients [1, 9] | ≧20% reduction of lesion area, number of patients [1, 9] | EMA primary endpoint: Investigator-assessed clinical cure ([1]; mITT, PTE) [%] | EMA primary endpoint: Investigator-assessed clinical cure, number of patients [1, 11] | Treatment emergent adverse events considered by investigators as related to study drug [2] [%] | Patients reported to experience at least one adverse event [2] [%] | FDA primary endpoint: Cessation of spread, absence of fever, no rescue antibiotics ([3]; confirmed MRSA, MicroITT) [%] | ≧20% reduction of lesion area ([3]; confirmed MRSA, MicroITT) [%] | FDA primary endpoint: Cessation of spread, absence of fever, no rescue antibiotics, number of patients [3, 12] | ≧20% reduction of lesion area, number of patients [3, 12] | EMA primary endpoint: Investigator-assessed clinical cure ([3]; confirmed MRSA, MicroITT) [%] | EMA primary endpoint: Investigator-assessed clinical cure, number of patients [3, 12] | further results
CN[C@H](CC(C)C)C(=O)N[C@H]1C(=O)N[C@@H](CC(N)=O)C(=O)N[C@H]2C(=O)N[C@H]3C(=O)N[C@H](C(=O)N[C@H](C(=O)O)c4cc(O)cc(O)c4-c4cc3ccc4O)[C@H](O[C@H]3C[C@](C)(N)[C@@H](O)[C@H](C)O3)c3ccc(c(Cl)c3)Oc3cc2cc(c3O[C@@H]2O[C@H](CO)[C@@H](O)[C@H](O)[C@H]2O[C@H]2C[C@](C)(NCc3ccc(-c4ccc(Cl)cc4)cc3)[C@@H](O)[C@H](C)O2)Oc2ccc(cc2Cl)[C@H]1O [Oritavancin, N^DISACC-(4-(4-chlorophenyl)benzyl)A82846B] | 82.0 | 96.0 | 82 | 96 | 84.0 | 84 | 80.1 | 85.9 | 403 | 432 | 82.7 | 416 | 21.7 | 50.9 | 81.4 | 93.1 | 166 | 190 | 83.3 | 170 | Efficacy versus vancomycin for ECE and PTE endpoints [1]: non-inferior to vancomycin; % Difference (95% CI), FDA primary endpoint [1, 10]: −2.7 (−7.5, 2.0) %; % Difference (95% CI), ≧20% reduction of lesion area [1, 10]: 0.6 (−3.7, 5.0) %; % Difference (95% CI), investigator-assessed clinical cure ([1]; mITT, PTE, oritavancin vs vancomycin): 2.2 (−2.6, 7.0) %; % Difference (95% CI), FDA primary endpoint ([3]; confirmed MRSA, MicroITT): 0.8 (−6.9, 8.4) %; % Difference (95% CI), ≧20% reduction of lesion area ([3]; confirmed MRSA, MicroITT, p value = 0.032): 6.1 (0.5, 11.6)* %; % Difference (95% CI), investigator-assessed clinical cure ([3]; confirmed MRSA, MicroITT): −0.7 (−7.9, 6.4) %; FDA primary endpoint: Cessation of spread, absence of fever, no rescue antibiotics ([3]; mITT): 81.2%; ≧20% reduction of lesion area ([3]; mITT): 86.4%; FDA primary endpoint: Cessation of spread, absence of fever, no rescue antibiotics, number of patients [3, 13]: 794; ≧20% reduction of lesion area, number of patients [3, 13]: 845; % Difference (95% CI), FDA primary endpoint ([3]; mITT): 0.2 (−3.3, 3.7) %; % Difference (95% CI), ≧20% reduction of lesion area ([3]; mITT): 2.3 (−0.9, 5.4) %; EMA primary endpoint: Investigator-assessed clinical cure ([3]; mITT): 81.2%; EMA primary endpoint: Investigator-assessed clinical cure, number of patients [3, 13]: 794; % Difference (95% CI), investigator-assessed clinical cure ([3]; mITT): 1.0 (−2.5, 4.5) %; Efficacy versus vancomycin for ECE and PTE endpoints ([3]; combined SOLO trials): non-inferior to vancomycin; MIC90 (MRSA isolates): 0.12 µg/mL (≈ 0.0669 µM); Free Fraction [4]: 0.15; Protein binding ([4]; serum from nonclinical species and humans (Arhin et al., 2010)): approximately 85%
CN[C@H](CC(C)C)C(=O)N[C@H]1C(=O)N[C@@H](CC(N)=O)C(=O)N[C@H]2C(=O)N[C@H]3C(=O)N[C@H](C(=O)N[C@H](C(=O)O)c4cc(O)cc(O)c4-c4cc3ccc4O)[C@H](O)c3ccc(c(Cl)c3)Oc3cc2cc(c3O[C@@H]2O[C@H](CO)[C@@H](O)[C@H](O)[C@H]2O[C@H]2C[C@](C)(N)[C@H](O)[C@H](C)O2)Oc2ccc(cc2Cl)[C@H]1O [Vancomycin, vancomycin] | 81.2 | 90.1 | 82 | 91 | 85.1 | 86 | 82.9 | 85.3 | 416 | 428 | 80.5 | 404 | 25.5 | 50.2 | 80.6 | 87.1 | 162 | 175 | 84.1 | 169 | FDA primary endpoint: Cessation of spread, absence of fever, no rescue antibiotics ([3]; mITT): 80.9%; ≧20% reduction of lesion area ([3]; mITT): 84.1%; FDA primary endpoint: Cessation of spread, absence of fever, no rescue antibiotics, number of patients [3, 13]: 794; ≧20% reduction of lesion area, number of patients [3, 13]: 825; EMA primary endpoint: Investigator-assessed clinical cure ([3]; mITT): 80.2%; EMA primary endpoint: Investigator-assessed clinical cure, number of patients [3, 13]: 787; Free Fraction [4]: 0.54
